From patent publication US8809368B2, “Compounds affecting gap junction activity” (Kansas State University Research Foundation, priority 2006, dated 2014)

Assays:
R28 cells = experiment: Dye transfer/scrape loading gap junction assay in R28 cells; format: cell-based, rat; conditions: 10 μM for 40 minutes
Procedure: To determine the effects of the compounds of the invention on gap junctions, […] R28 cells and lucifer yellow dye and rhodamine dextran were used to study gap junction. (Das, S.; Lauer, J.; Barnett, M.; Lin, D.; Akoev, V.; Battina, S.; Hua, D. H.; Takemoto, D. J. PKCγ phosphorylates connexin50 on serine-430. A presentation at 2006 ARVO Annual Meeting, Apr. 30-May 4, 2006, Fort Lauderdale, Fla.). […] The cells were treated with different compounds as shown @ 10 μM for 40 minutes. A mixture of lucifer yellow (LY) and rhodamine dextran (RD) was added to the cells at the center of the coverslip. Two cuts across the coverslip were made to form a transient tear in the plasma membranes of the cells to permit dye transfer through gap junctions. Cells were incubated with the dye for 20 minutes, then fixed and examined by fluorescent microscopy. For quantitative analysis the extent of dye transfer was estimated by counting the number of LY and RD labeled cells in the microscopic field and graphed. […] PQ3 is useful as a drug having reduced gap junction inhibitory activity. The gap junction activity of other compounds of the invention may be tested as described herein without the use of undue experimentation.
Gap junction activity assay. R28 cells were grown to 90% confluency on coverslips. They were treated with PQ1 at 10 μM for 40 min. A mixture of 1% each, in PBS, Lucifer yellow (LY) and Rhodamine Dextran (RD) (Molecular Probes, Eugene, Oreg.) were added to the cells at the center of the coverslip. Two cuts across the coverslip were made to form a transient tear in the plasma membranes of the cells to permit dye entry into cells. Cells were incubated with 2.5 μl of both of the dyes for 20 min, then fixed in 2.5% paraformaldehyde, washed in PBS and examined by fluorescent microscopy using a Nikon C1 confocal microscopy. For quantitation, the extent of dye transfer was calculated by counting the number of LY-labeled cells from the initial scrape with subtraction of RD-labeled cells, as a cell damage control, in the microscopic field. Four points per slide were photographed. The experiments were repeated six times, and data are means±SEM.

[1] = test system: T47D human breast cancer cells; experiment: Soft agar colony growth, T47D cells; format: cell-based; conditions: for effect on breast cancer cell colony growth: Table 2
Procedure: Base agar plates were prepared containing 0.8% agar and 0.4% agar in Ham's F12. Cells (5×10^4 cells/33 mm^2 well) were suspended in 100 μl of Ham's F12 with 0.4% agar and plated. These plates were maintained at 37° C. for 7 days and examined for the presence of colonies. Individual colonies of 50 μm or greater were examined. T47D cells were treated with 1, 10 and 100 nM PQ1 and SA (succinic acid) as a solvent control. Individual colonies of 50 μm or greater were examined. Statistical significance, *p<0.05, of at least three experiments
FIG. 3(A) MDA-MB-453 and (B) T47D human breast cancer cells were treated with 10 μM of various quinolines for 7 days. Base agar plates were prepared containing 0.8% agar and 0.4% agar in Ham's F12. Cells (5×10^4 cells/33 mm well) were suspended in 100 μl of Ham's F12 with 0.4% agar and plated. These plates were maintained at 37° C. for 7 days and examined for the presence of colonies. Individual colonies of 40 μm or greater were examined. […] However, PQ3 caused a 2.3-fold increase in colony growth in MDA-MB-453 cells and PQ2 caused a 2.6-fold increase in T47D colony growth compared to DMSO. FIGS. 7 and 8 show MDA-MB-453 and T47D colony growth for various concentrations of PQ1 and SA tested for 7 days. The procedures are generally as described above. The cell colony growth decreased using 10 and 100 nM PQ1 for both cell types.
(§1) Colony Growth Assay: T47D human breast cancer cells were treated with PQ1. Base agar plates were prepared containing 0.8% agar and 0.4% agar in Ham's F12. Cells (5×10^4 cells/33 mm2 well) were suspended in 100 μl of Ham's F12 with 0.4% agar and plated. These plates were maintained at 37° C. for 7 days and examined for the presence of colonies. Individual colonies of 40 um or greater were examined.
Various oncogenes (e.g. ras, raf, neu, src, mos) down-regulate GJIC while several tumor suppressor genes can up-regulate GJIC. […] Cells were grown in soft agar to assess their capacity for anchorage-independent growth, which is a key feature of cell transformation due to the importance of cell-cell and cell-matrix based tumor suppression. MEC and T47D cells were treated with 10, 100, 1000, and 10000 nM PQ1 for 7 days. A graphical presentation of three experiment results is presented in log scale of PQ1 concentration. […] A 100 nM PQ1 inhibits 66% of colony growth compared to controls, without PQ1 treatment or 100 nM succinic acid.
as §1, with “Using Soft Agar. Cells” for “Assay: T47D human breast cancer cells”, “0, 10, 100, 200 and 500 nM PQ1 for 7 days.” for “PQ1.”, “mm^2” for “mm2”, “50 μm” for “40 um”

MCF-7 = experiment: Gap junction intercellular communication, MCF-7 cells; format: cell-based, human; conditions: Table 1
ZR75 = experiment: Gap junction intercellular communication, ZR75 cells; format: cell-based, human; conditions: Table 1
SW620 colon cancer cells = experiment: Gap junction activity, SW620 colon cancer cells; format: cell-based
Procedure: However, PQ3 has an opposite effect on mammary cancer cell lines. […] A summary of PQ-mediated GJIC activity and colony growth in breast and colon cancer cells is presented in Tables 1, 2, and 3, as well as FIGS. 10-13. In FIG. 10, SW620 cells were dosed for 24 hours with PQ1 at 100, 200, 300, and 500 nM. The gap junction activity was measured as a percent of control, as previously described. It was seen that all concentrations on PQ1 increased the gap junction activity in SW620 colon cancer cells as compared to the control. In FIG. 11, the effect of PQ1 on the expression of PKCγ was studied at concentrations of 100, 200, 300 and 500 nM PQ1 for 24 hours. It is seen in FIG. 11 that PQ1 has no effect on the expression of PKCγ at the levels tested. In FIGS. 12 and 13, the effect of PQ1 on the colony growth of SW620 colon cancer cells was measured with 1-100 nM PQ1 (FIG. 12) and 10 uM PQ1 (FIG. 13).

Structure (SMILES) | block of lucifer yellow dye transfer through gap junctions (R28 cells; compared to untreated control cells) | colony growth attenuation ([1]; 10 μM, 7 days, compared to control) | colony growth compared to control ([1]; 10, 100, 1000 and 10000 nM, 7 days) | cell colony growth ([1]; 10 and 100 nM, 7 days) | inhibition at 0.1 µM ([1]; Homo sapiens, 168 h, 100 nM, 7 days, compared to controls) [%] | effect on breast cancer cell colony growth [1] | effect on gap junction intercellular communication (MCF-7) | effect on gap junction intercellular communication (ZR75) | gap junction activity as compared to the control (SW620 colon cancer cells; 100, 200, 300 and 500 nM, 24 hours) | effect on gap junction intercellular communication (SW620 colon cancer cells; Table 3, 300 nM) | inhibition at 10 µM (R28 cells; Rattus norvegicus, R28, 40 min, as compared with the control, read-out: inhibitory activity on gap junction dye transfer) [%] | effect on colony growth ([1]; 10 μM, 7 days) | effect on gap junction intercellular communication (SW620 colon cancer cells; Table 3, 500 nM)
COc1cc(NCCCN)c2nccc(C)c2c1Oc1cccc(C(F)(F)F)c1.O=C(O)CCC(=O)O [PQ1, 6-Methoxy-8-[(3-aminopropyl)amino]-4-methyl-5-(3-trifluoromethylphenyloxy) quinoline succinic acid] | hardly any passage of the dye | 80-95% | significant inhibition | decreased | 66 | Decrease | No effect | Decrease | increased | Increase |  |  | 
COc1cc(N)c2nccc(C)c2c1Oc1cccc(C(F)(F)F)c1 [PQ3, 8-Amino-6-methoxy-4-methyl-5-(3-trifluoromethylphenyloxy)quinoline] |  |  |  |  |  | Decrease | Decrease | No effect |  |  | ~20 | inhibitory effect | Increase
